Patent US20080176266A1, “Biomarkers Of Metabolic Responses To Hepatotoxicants And Carcinogens” (priority 2006, published 2008)
Marks after values point to notes of the source that are not given here.

Legend:
rats = details: cited from earlier work
Sprague Dawley rats [1] = test: Liver enzymes ALT and AST in serum; type: in vivo; details: rat serum, 0, 50, 250 mg/kg, any groups
Method: (§1) In detail, a single dose of clofibrate or vehicle was administered by gavage (0, 50 and 250 mg/kg) to groups of 18 male Sprague Dawley rats at 11 wks age. Six rats per dose group were euthanized at 6 and 24 h post-dose. Serum (for metabolomics and alanine aminotransferase (ALT), and aspartate aminotransferase (AST)), liver lobes (for histology), and frozen liver and urine (for metabolomics) were collected. Six rats per dose group were placed in metabolism cages for urine collection at −24-0 h, 0-6 h, 6-24 h and 24-48 h. These rats were removed from metabolism cages at 48 h post-dose, for blood and liver collection. The detailed study design is set forth in Chart 1.

Sprague Dawley rats [2] = test: Liver-to-body weight ratio (LBR), F-tests; type: in vivo, rat; details: Day 14 animals, with time and with dose, not the interaction of dose-time
From the text: Liver hypertrophy is a well-known clinical end-point of chronic clofibrate exposure, however, the biomarkers of this pathology are unknown. Using the measurements of the liver weight and the body weight of the animals, we calculated the liver-to-body weight ratio (LBR). […] Second, we discovered the components that could classify the LBR in the liver and in the serum. This was accomplished out using a step wise regression method with the LBR as the response variable and all of the components as independent variables. After an iterative selection procedure, 29 of the best components from the serum and the liver were used to build the reduced model given below: […]

Sprague Dawley rats [3] = test: Liver histology; type: in vivo; details: rat liver
Method: as §1, with “In detail, a single dose of clofibrate or vehicle was administered by gavage (0, 50 and 250 mg/kg) to groups of 18 male Sprague Dawley rats at 11 wks age.” left out

Sprague Dawley rats [4] = test: GC-MS metabolomics of liver from rats exposed to clofibrate; type: in vivo; details: rat liver, 250 mg/kg/d
Method: In one embodiment, the hepatotoxicant is clofibrate. Clofibrate or vehicle is administered orally (0, 50, 250 mg/kg/d) to groups of 6 rats and serum and livers are collected 6 and 24 h after either a single or 14 daily doses. Global biochemical profiles are determined by LC-MS and GC-MS and components highly perturbed by clofibrate exposure are identified by the methods described above. […] Rats (6 per group) were dosed by gavage with vehicle, 50 or 250 mg/kg clofibrate per day for 1 (single dose) or 14 days (repeated dose). These groups are referred to as “day 1” and ‘day 14 (d 1 and d14).” Liver and serum were collected at 6 and 24 h post-dosing in the day 1 and day 14. In detail, a single dose of clofibrate or vehicle was administered by gavage (0, 50 and 250 mg/kg) to groups of 18 male Sprague Dawley rats at 11 wks age. Six rats per dose group were euthanized at 6 and 24 h post-dose. Serum (for metabolomics and alanine aminotransferase (ALT), and aspartate aminotransferase (AST)), liver lobes (for histology), and frozen liver and urine (for metabolomics) were collected. Six rats per dose group were placed in metabolism cages for urine collection at −24-0 h, 0-6 h, 6-24 h and 24-48 h. These rats were removed from metabolism cages at 48 h post-dose, for blood and liver collection. The detailed study design is set forth in Chart 1. For GC-MS, liver was extracted with CHCl3:MeOH mixtures. Organic residue was derivitized with BSTFA and dried aqueous residues were derivitized with methoxyamine HCl/BSTFA. Samples were injected with 10:1 split into an Agilent 6890 gas chromatograph. A Leco Pegasus III TOFMS was used. Ions were generated at 70 eV with 3.2 mA ionization current; 25 spectra/s were recorded for 60-800 m/z. Acceleration voltage activated after 180 s solvent delay. Detector voltage: 1750 V. Data were processed with Leco ChromaTOF software. Automatic peak detection and mass spectrum deconvolution were performed using 1.33 s peak width. Peaks with S/N less than 20 were rejected. Component identification was accomplished with the NIST 98' MS library and, in some cases, verified with standards. Components with similarity greater than 600 were used for analysis.

DNA = details: short term treatment; Gonzalez et al. (1998); cited from earlier work

Clofibrate metabolite Propanoic acid, 2-(4-chlorophenoxy)-2-methyl- detected in liver (Sprague Dawley rats [4]; GC-MS): (not present in control)
SMILES: CCOC(=O)C(C)(C)Oc1ccc(Cl)cc1 [clofibrate, ethyl-p-chloro-phenoxyisobutyrate]
Microscopic changes to liver (rats; 24 h after a single exposure): no microscopic changes | Liver histopathology (rats; after 2 weeks): induced hypertrophy | ALT (Sprague Dawley rats [1]): not elevated | AST (Sprague Dawley rats [1]): not elevated | Liver-to-body weight ratio (LBR) (Sprague Dawley rats [2]): significantly increased | Histology: hepatocellular cytologic alterations (Sprague Dawley rats [3]; after 14 doses at 250 mg/kg/day, all time points): hepatocellular cytologic alterations (indicating loss of glycogen and eosinophilic granular cytoplasm) were noted | Histology: hepatocellular mitotic figures (Sprague Dawley rats [3]; after a single dose, 50 to 250 mg/kg): dose related increase and severity of hepatocellular mitotic figures | Hepatic 1-Mono linoleoylglycerol (fold change) (Sprague Dawley rats [4]; Day 1, 6 H): 1.11*** fold change | Hepatic 1-Mono oleoylglycerol (fold change) (Sprague Dawley rats [4]; Day 1, 6 H): 0.98* fold change | Hepatic 1-Mono palmitoylglycerol (fold change) (Sprague Dawley rats [4]; Day 1, 6 H): 0.91** fold change | Hepatic 2-Mono oleoylglycerol (fold change) (Sprague Dawley rats [4]; Day 1, 6 H): 1.12*** fold change | Hepatic Cholesterol (fold change) (Sprague Dawley rats [4]; Day 1, 6 H): 1.34*** fold change | Hepatic Glucose (aq) (fold change) (Sprague Dawley rats [4]; Day 1, 6 H): 0.29* fold change | Hepatic Glycine (fold change) (Sprague Dawley rats [4]; Day 1, 6 H): 2.69** fold change | Hepatic Lactic acid (fold change) (Sprague Dawley rats [4]; Day 1, 6 H): 1.56** fold change | Hepatic Linoleic acid (fold change) (Sprague Dawley rats [4]; Day 1, 6 H): 0.97* fold change | Hepatic Palmitate (fold change) (Sprague Dawley rats [4]; Day 1, 6 H): 0.95*** fold change | Hepatic Stearate (fold change) (Sprague Dawley rats [4]; Day 1, 6 H): 1.07* fold change | Hepatic 1-Mono stearoylglycerol (fold change) (Sprague Dawley rats [4]; Day 1, 24 H): 17.14** fold change | Hepatic Glycerol 1(3)-phosphate (fold change) (Sprague Dawley rats [4]; Day 1, 24 H): 2.56* fold change | Hepatic Glycine (fold change) (Sprague Dawley rats [4]; Day 1, 24 H): 3.42* fold change | Hepatic L-Aspartic acid (fold change) (Sprague Dawley rats [4]; Day 1, 24 H): 27.88*** fold change | Hepatic Lactic acid (fold change) (Sprague Dawley rats [4]; Day 1, 24 H): 4.41* fold change | Hepatic Succinic acid (Butanedioic acid) (fold change) (Sprague Dawley rats [4]; Day 1, 24 H): 17.05** fold change | Hepatic l-Alanine (fold change) (Sprague Dawley rats [4]; Day 1, 24 H): 4.74* fold change | Hepatic 1-Mono palmitoylglycerol (fold change) (Sprague Dawley rats [4]; Day 14, 6 H): 0.04** fold change | Hepatic 1-Mono stearoylglycerol (fold change) (Sprague Dawley rats [4]; Day 14, 6 H): 0.22** fold change | Hepatic 2-Mono stearoylglycerol (fold change) (Sprague Dawley rats [4]; Day 14, 6 H): 0.41* fold change | Hepatic Arachidonic acid (fold change) (Sprague Dawley rats [4]; Day 14, 6 H): 0.22*** fold change | Hepatic Cholesterol (fold change) (Sprague Dawley rats [4]; Day 14, 6 H): 1.87** fold change | Hepatic Malate (fold change) (Sprague Dawley rats [4]; Day 14, 6 H): 0.1** fold change | Hepatic Palmitate (fold change) (Sprague Dawley rats [4]; Day 14, 6 H): 0.72** fold change | Hepatic β-Sitosterol (fold change) (Sprague Dawley rats [4]; Day 14, 6 H): 0.37** fold change | Hepatic Cholesterol (fold change) (Sprague Dawley rats [4]; Day 14, 24 H): 0.69** fold change | Hepatic Docosahexaenoic acid (fold change) (Sprague Dawley rats [4]; Day 14, 24 H): 0.58* fold change | Hepatic Glucose (aq) (fold change) (Sprague Dawley rats [4]; Day 14, 24 H): 0.39** fold change | Hepatic Malate (fold change) (Sprague Dawley rats [4]; Day 14, 24 H): 0.33** fold change | Hepatic β-Sitosterol (fold change) (Sprague Dawley rats [4]; Day 14, 24 H): 0.46* fold change | DNA adducts (DNA): no DNA adducts have been observed
